{"source": "patent USRE49351E1", "about": "“Cytoprotective agent” (Biogen MA Inc., priority 2009, dated 2023)", "key": {"[1]": {"system": "Mongolian gerbil cerebral infarction model", "test": "Mongolian gerbil cerebral infarction model (acetic acid-induced thrombus): infarction area percentage and neurological symptom", "format": "in vivo", "details": "mean ± SE, n=6; for Infarction area: evaluated 24 h; for Neurological scores: score 0-4 at 24 h", "text": "Anesthesia was induced to a male Mongolian gerbil (body weight 55 to 65 g) by inhalation of 5% isoflurane (trade name Escain, Mylan Inc.), and maintained with 1 to 1.5% isoflurane. The Mongolian gerbil was fixed in a dorsal position, and the neck was dehaired and then disinfected with 70% ethanol. After median incision of the neck, the right common carotid artery was detached, clamped to block the blood flow temporarily, and coated with 100% acetic acid by 30 reciprocating motions so as to produce a thrombus. The blood vessel was reopened after 10 min of the blockage of the blood flow to transfer the thrombus by the blood stream into the brain to make it ischemic and generate cerebral infarction. The operating field was closed with an instant adhesive (trade name Aron Alpha (Krazy Glue), Toagosei Co., Ltd.) and disinfected with 70% ethanol.\nTwenty four hours after the initiation of the operation neurological symptoms were observed as an indicator for cerebral infarction. Many types of neurological symptoms specific to cerebral infarction, such as extension of a hindlimb or circling to one direction, have been reported. Applying a modified evaluation method of the method proposed by Longa, et al. (Stroke 1989; 20:84-91) postoperative neurological symptoms were evaluated as per: no deficit, 0; extension of limb, 1; circling to one direction, 2; incline posture, 3; diminished motion, 4.\nWith respect to statistical analysis, for multiple comparisons was conducted firstly one-way analysis of variance (ANOVA) and then a Bonferroni test was conducted, if significant difference is detected. Significant difference was positively recognized with significance level 5% (P<0.05). All the results are expressed in mean±standard error.\nAfter the evaluation of neurological symptoms according to the above method, the animal was decapitated under anesthesia with isoflurane. The cranial bone was exfoliated of skin and opened, and, after scission of optic nerve, the brain was extirpated and dipped in a physiological saline solution to remove attached body hairs, etc. The extirpated brain was placed in a brain matrix (RBM-1000C, ASI Instruments) to carry out coronal slicing from the frontal pole at thickness of 2 mm. The slices were dipped in 2% 2,3,5-triphenyl-2H-tetrazolium chloride (TTC), and incubated for staining at 37° C. for 30 min in a CO2 incubator. The colorless TTC is reduced by hydrogen liberated by the action of dehydrogenase contained in a normal cell converting to dark red colored water-insoluble 1,3,5-triphenylformazan (TPF), so that the normal cell is stained. Unstained area (white area) was defined as an infarction area. Meanwhile, the corpus callosum, which is commissural fibers connecting the right and left cerebral hemispheres, is not stained and is white, and therefore image processing for the analyses as described below was conducted excluding the corpus callosum.\nAfter staining images of the brain slices were taken by a digital camera under a stereoscopic microscope. For analysis of the infarction area percentage, an image analysis software Image J (Version 1.4) was used. Full, excluding the corpus callosum, images of the taken 2nd, 3rd, and 4th brain slice images were converted to grayscale. From the grayscale images a histogram for the whole brain as the object scope was obtained showing in the ordinate the frequency of occurrence (frequency) at certain brightness, and showing in the abscissa the brightness (0 to 255). The sum from 0 to 255 was defined as the area size of the whole brain, and the sum from 160 to 219 was defined as the area size of the infarction area. Then the infarction area percentage was determined according to the following formula using the total area size of the infarction areas and the total area size of the whole brain, of the 3 brain slice images. Statistical analysis was conducted as above. […]"}, "[2]": {"test": "modified H-ORAC (mH-ORAC) assay", "format": "biochemical", "details": "acetone solution, acetone final concentration 1.25%", "procedure": "(§1) To study the free radical scavenging activity of a triprenyl phenol compound, the following H-ORAC (hydrophilic oxygen radical absorbance capacity) assay, and modified H-ORAC (mH-ORAC) assay were conducted.\n(§2) SMTP compounds evaluated by H-ORAC were used respectively in a form of a sodium salt aqueous solution, and the compounds evaluated by mH-ORAC were used respectively in a form of an acetone solution.\n(§3) In H-ORAC a test compound was diluted appropriately with a buffer solution (75 mM phosphate buffer solution, pH 7.4) and used for measurement. In mH-ORAC a test compound was diluted appropriately by a 50% (v/v) acetone solution, prepared by diluting an acetone solution with water, to prepare a solution of 40-fold the final concentration. […] As for the reference material Trolox, 500 μM/buffer solution was diluted appropriately with a buffer solution.\n(§4) To a 96-well microplate (transparent, flat bottom, black wall) 50 μL of a test compound solution or a Trolox solution was placed, and additionally 100 μL of a fluorescein 140 nM/buffer solution as a fluorescent substance was added (final concentration 70 nM), followed by incubation at 37° C. for […].\n(§5) As a free radical generator, 50 μL of a 48 mM/buffer solution of 2,2′-azobis(amidinopropane)dihydrochloride was added (final concentration 12 mM), and fluorescence intensity at fluorescence wavelength of 535 nm with excitation wavelength of 485 nm was measured at 2 min intervals for 90 min. The calibration curve was prepared between the Trolox final concentrations of 5 to 15 μM. The measurement was conducted by changing the concentration with n=3, and plotted on a diagram with time on the abscissa and the fluorescence intensity on the ordinate. Therewith evaluation was made using the value obtained by reducing the area under the curve for the blank from the area under the curve for the sample. The result was expressed as an equivalent to Trolox."}, "[3]": {"test": "H-ORAC (hydrophilic oxygen radical absorbance capacity) assay", "format": "biochemical", "details": "sodium salt aqueous solution, phosphate buffer pH 7.4", "procedure": "as §1, §2, §3, §4, §5"}, "[4]": {"details": "1 mg/kg i.v., administration initiated 0 hr after ischemia"}, "[5]": {"details": "1 mg/kg i.v., administration initiated 1 hr after ischemia"}, "[6]": {"details": "10 mg/kg i.v., administration initiated 1 hr after ischemia"}, "[7]": {"details": "3 mg/kg i.v., administration initiated 0 hr after ischemia"}, "[8]": {"details": "3 mg/kg i.v., administration initiated 1 hr after ischemia"}, "[9]": {"details": "3 mg/kg i.v., administration initiated 3 hr after ischemia"}}, "note": "Where a name gives a salt, the structure may show the parent alone."}
{"smiles": "CC1CNc2c(cccc2S(=O)(=O)N[C@@H](CCCNC(=N)N)C(=O)N2CC[C@@H](C)C[C@@H]2C(=O)O)C1", "note": "(stereo partly drawn) [argatroban]", "values": [{"measurement": "Infarction area", "setting": "[1]; [4]", "result": "10.0 ± 2.66", "unit": "%"}, {"measurement": "Neurological scores", "setting": "[1]; [4]", "result": "2.33 ± 0.61"}, {"measurement": "Infarction area", "setting": "[1]; [5]", "result": "12.1 ± 2.46", "unit": "%"}, {"measurement": "Neurological scores", "setting": "[1]; [5]", "result": "2.50 ± 0.50"}, {"measurement": "Infarction area", "setting": "[1]; [6]", "result": "11.5 ± 2.57", "unit": "%"}, {"measurement": "Neurological scores", "setting": "[1]; [6]", "result": "2.50 ± 0.56"}]}
{"smiles": "CC1=NN(c2ccccc2)C(=O)C1", "note": "[edaravone]", "values": [{"measurement": "Infarction area", "setting": "[1]; [5]", "result": "12.8 ± 2.87", "unit": "%"}, {"measurement": "Neurological scores", "setting": "[1]; [5]", "result": "3.17 ± 0.17"}, {"measurement": "Infarction area", "setting": "[1]; [7]", "result": "9.95 ± 3.22", "unit": "%"}, {"measurement": "Neurological scores", "setting": "[1]; [7]", "result": "1.50 ± 0.67"}, {"measurement": "Infarction area", "setting": "[1]; [8]", "result": "8.29 ± 1.61", "unit": "%"}, {"measurement": "Neurological scores", "setting": "[1]; [8]", "result": "1.50 ± 0.67"}, {"measurement": "Infarction area", "setting": "[1]; [9]", "result": "12.3 ± 5.59", "unit": "%"}, {"measurement": "Neurological scores", "setting": "[1]; [9]", "result": "2.50 ± 0.56"}, {"measurement": "Infarction area", "setting": "[1]; [6]", "result": "9.29 ± 2.17", "unit": "%"}, {"measurement": "Neurological scores", "setting": "[1]; [6]", "result": "1.83 ± 0.65"}]}
{"smiles": "CC(C)=CCCC(C)=CCCC1(C)Oc2c(c(O)cc3c2CN(CCCCC(C(=O)O)N2Cc4c(cc(O)c5c4OC(C)(CCC=C(C)CCC=C(C)C)C(O)C5)C2=O)C3=O)CC1O", "note": "(stereo not drawn) [SMTP-8]", "values": [{"measurement": "free radical scavenging activity, Trolox equivalent", "setting": "[2]", "result": "1.69 ± 0.14", "unit": "molTE/mol"}]}
{"smiles": "CC(C)=CCCC(C)=CCC[C@]1(C)Oc2c(c(O)cc3c2CN(c2ccc(S(=O)(=O)O)cc2)C3=O)C[C@@H]1O", "note": "[SMTP-42]", "values": [{"measurement": "free radical scavenging activity, Trolox equivalent", "setting": "[3]", "result": "3.28 ± 0.25", "unit": "molTE/mol"}]}
{"smiles": "CC(C)=CCC/C(C)=C/CC[C@]1(C)Oc2c(c(O)cc3c2CNC3=O)C[C@@H]1O", "note": "[SMTP-0]", "values": [{"measurement": "free radical scavenging activity, Trolox equivalent", "setting": "[2]", "result": "7.76 ± 0.36", "unit": "molTE/mol"}]}
{"smiles": "CSCC[C@@H](C(=O)O)N1Cc2c(cc(O)c3c2O[C@@](C)(CCC=C(C)CCC=C(C)C)[C@@H](O)C3)C1=O", "note": "[SMTP-13]", "values": [{"measurement": "free radical scavenging activity, Trolox equivalent", "setting": "[3]", "result": "3.07 ± 0.51", "unit": "molTE/mol"}]}
{"smiles": "CC(C)=CCC/C(C)=C/CCC1(C)Oc2c(c(O)cc3c2CN([C@H](CC(C)C)C(=O)O)C3=O)CC1O", "note": "(stereo partly drawn) [SMTP-5D]", "values": [{"measurement": "free radical scavenging activity, Trolox equivalent", "setting": "[3]", "result": "1.71 ± 0.20", "unit": "molTE/mol"}]}
{"smiles": "CC(C)=CCC/C(C)=C/CCC1(C)Oc2c(c(O)cc3c2CN(C(Cc2ccccc2)C(=O)O)C3=O)CC1O", "note": "(stereo not drawn) [SMTP-4]", "values": [{"measurement": "free radical scavenging activity, Trolox equivalent", "setting": "[3]", "result": "1.79 ± 0.02", "unit": "molTE/mol"}]}
{"smiles": "CC(C)=CCC/C(C)=C/CC[C@]1(C)Oc2c(c(O)cc3c2CN(CCO)C3=O)C[C@@H]1O", "note": "[SMTP-1]", "values": [{"measurement": "free radical scavenging activity, Trolox equivalent", "setting": "[2]", "result": "4.35 ± 0.55", "unit": "molTE/mol"}]}
{"smiles": "Clc1ccccc1CN1CCc2sccc2C1", "note": "[ticlopidine HCl]", "values": [{"measurement": "Infarction area", "setting": "[1]; [4]", "result": "8.83 ± 1.73", "unit": "%"}, {"measurement": "Neurological scores", "setting": "[1]; [4]", "result": "2.33 ± 0.42"}, {"measurement": "Infarction area", "setting": "[1]; [5]", "result": "13.1 ± 3.89", "unit": "%"}, {"measurement": "Neurological scores", "setting": "[1]; [5]", "result": "2.67 ± 0.56"}, {"measurement": "Infarction area", "setting": "[1]; [6]", "result": "9.84 ± 1.81", "unit": "%"}, {"measurement": "Neurological scores", "setting": "[1]; [6]", "result": "2.33 ± 0.42"}]}
{"smiles": "CC(C)=CCCC(C)=CCC[C@]1(C)Oc2c(c(O)cc3c2CN([C@@H](Cc2ccc(O)cc2)C(=O)O)C3=O)C[C@@H]1O", "note": "[SMTP-14]", "values": [{"measurement": "free radical scavenging activity, Trolox equivalent", "setting": "[3]", "result": "4.43 ± 0.49", "unit": "molTE/mol"}]}
